For assay [1], the target named is RPS6KB1 (p70S6K) (Homo sapiens, UniProt P23443). As to the kind of experiment: Z'-LYTE SelectScreen biochemical kinase assay RPS6KB1 (p70S6K). The procedure, abridged: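 Z′-LYTE FRET-peptide assay: 2.87-17.7 ng kinase with 2 μM Ser/Thr 07 in 50 mM HEPES pH 7.5, 10 mM MgCl2, 1 mM EGTA, 0.01% BRIJ-35, 1% DMSO; ATP at apparent Km; 60 min kinase and 60 min development at room temperature. Emission ratio 445/520 nm; 10-point 3-fold titration fitted to sigmoidal dose-response.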
RPS6KB1 (p70S6K), sequence (P23443 whole entry): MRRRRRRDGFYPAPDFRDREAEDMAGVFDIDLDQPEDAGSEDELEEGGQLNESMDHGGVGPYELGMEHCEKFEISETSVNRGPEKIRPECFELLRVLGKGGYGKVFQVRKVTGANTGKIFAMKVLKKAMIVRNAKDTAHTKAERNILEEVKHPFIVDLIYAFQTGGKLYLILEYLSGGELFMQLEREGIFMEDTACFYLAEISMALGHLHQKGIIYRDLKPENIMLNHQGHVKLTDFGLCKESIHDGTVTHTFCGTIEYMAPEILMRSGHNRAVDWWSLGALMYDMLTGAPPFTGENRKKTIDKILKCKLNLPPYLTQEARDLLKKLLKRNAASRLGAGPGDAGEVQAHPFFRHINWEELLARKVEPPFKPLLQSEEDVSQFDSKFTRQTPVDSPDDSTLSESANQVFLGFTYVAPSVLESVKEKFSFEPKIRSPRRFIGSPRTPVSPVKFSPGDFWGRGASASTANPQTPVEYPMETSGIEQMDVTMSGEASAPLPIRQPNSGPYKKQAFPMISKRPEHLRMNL

Assay [2] deals with FGFR1 (Homo sapiens, UniProt P11362). As to the kind of experiment: Z'-LYTE SelectScreen biochemical kinase assay FGFR1.
FGFR1, sequence (P11362 22-822): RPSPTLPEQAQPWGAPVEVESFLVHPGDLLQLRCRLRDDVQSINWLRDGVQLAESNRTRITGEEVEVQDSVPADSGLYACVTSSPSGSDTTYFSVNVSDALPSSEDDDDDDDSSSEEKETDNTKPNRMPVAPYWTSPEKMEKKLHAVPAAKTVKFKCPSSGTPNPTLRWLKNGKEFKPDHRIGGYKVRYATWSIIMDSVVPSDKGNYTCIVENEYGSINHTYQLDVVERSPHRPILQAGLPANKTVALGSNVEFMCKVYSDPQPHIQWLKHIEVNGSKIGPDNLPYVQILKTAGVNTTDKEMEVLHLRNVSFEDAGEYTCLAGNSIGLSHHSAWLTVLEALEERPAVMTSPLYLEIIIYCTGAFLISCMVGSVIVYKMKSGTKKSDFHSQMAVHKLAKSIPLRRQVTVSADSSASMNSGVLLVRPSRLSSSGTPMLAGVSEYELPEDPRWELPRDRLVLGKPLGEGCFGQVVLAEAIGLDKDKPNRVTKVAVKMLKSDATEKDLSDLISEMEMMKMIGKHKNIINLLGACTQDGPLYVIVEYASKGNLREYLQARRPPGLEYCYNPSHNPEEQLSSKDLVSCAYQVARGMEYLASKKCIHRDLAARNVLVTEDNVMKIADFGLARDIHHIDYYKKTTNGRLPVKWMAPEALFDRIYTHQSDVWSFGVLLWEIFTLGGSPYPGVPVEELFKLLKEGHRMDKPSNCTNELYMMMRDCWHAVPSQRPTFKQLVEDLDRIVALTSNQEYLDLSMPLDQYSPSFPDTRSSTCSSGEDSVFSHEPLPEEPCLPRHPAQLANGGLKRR
Assay [3] deals with CSF1R (FMS) (Homo sapiens, UniProt P07333). As to the kind of experiment: Z'-LYTE SelectScreen biochemical kinase assay CSF1R (FMS). The procedure, abridged:
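Z′-LYTE FRET-peptide assay: 0.2-40 ng CSF1R (FMS) with 2 μM Tyr 01 peptide in 50 mM HEPES pH 7.5, 10 mM MgCl2, ATP at apparent Km, 1% DMSO, 60 min at room temperature. Protease development 60 min; coumarin/fluorescein emission ratio gives phosphorylation; 10-point 3-fold titrations fitted sigmoidally.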

For assay [4], the target named is PDGFRA (PDGFR alpha) (Homo sapiens, UniProt P16234). As to the kind of experiment: Z'-LYTE SelectScreen biochemical kinase assay PDGFRA (PDGFR alpha). In short, it runs like this: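 Z′-LYTE FRET-peptide cleavage assay: 1.54-22.6 ng PDGFRA with 2 μM Tyr 04 in HEPES pH 7.5 buffer with MgCl2/MnCl2, ATP at apparent Km, 1% DMSO, 60 min at room temperature. Coumarin/fluorescein emission ratio after development; 10-point 3-fold titrations fitted sigmoidally.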
PDGFRA (PDGFR alpha), sequence (P16234 24-1089): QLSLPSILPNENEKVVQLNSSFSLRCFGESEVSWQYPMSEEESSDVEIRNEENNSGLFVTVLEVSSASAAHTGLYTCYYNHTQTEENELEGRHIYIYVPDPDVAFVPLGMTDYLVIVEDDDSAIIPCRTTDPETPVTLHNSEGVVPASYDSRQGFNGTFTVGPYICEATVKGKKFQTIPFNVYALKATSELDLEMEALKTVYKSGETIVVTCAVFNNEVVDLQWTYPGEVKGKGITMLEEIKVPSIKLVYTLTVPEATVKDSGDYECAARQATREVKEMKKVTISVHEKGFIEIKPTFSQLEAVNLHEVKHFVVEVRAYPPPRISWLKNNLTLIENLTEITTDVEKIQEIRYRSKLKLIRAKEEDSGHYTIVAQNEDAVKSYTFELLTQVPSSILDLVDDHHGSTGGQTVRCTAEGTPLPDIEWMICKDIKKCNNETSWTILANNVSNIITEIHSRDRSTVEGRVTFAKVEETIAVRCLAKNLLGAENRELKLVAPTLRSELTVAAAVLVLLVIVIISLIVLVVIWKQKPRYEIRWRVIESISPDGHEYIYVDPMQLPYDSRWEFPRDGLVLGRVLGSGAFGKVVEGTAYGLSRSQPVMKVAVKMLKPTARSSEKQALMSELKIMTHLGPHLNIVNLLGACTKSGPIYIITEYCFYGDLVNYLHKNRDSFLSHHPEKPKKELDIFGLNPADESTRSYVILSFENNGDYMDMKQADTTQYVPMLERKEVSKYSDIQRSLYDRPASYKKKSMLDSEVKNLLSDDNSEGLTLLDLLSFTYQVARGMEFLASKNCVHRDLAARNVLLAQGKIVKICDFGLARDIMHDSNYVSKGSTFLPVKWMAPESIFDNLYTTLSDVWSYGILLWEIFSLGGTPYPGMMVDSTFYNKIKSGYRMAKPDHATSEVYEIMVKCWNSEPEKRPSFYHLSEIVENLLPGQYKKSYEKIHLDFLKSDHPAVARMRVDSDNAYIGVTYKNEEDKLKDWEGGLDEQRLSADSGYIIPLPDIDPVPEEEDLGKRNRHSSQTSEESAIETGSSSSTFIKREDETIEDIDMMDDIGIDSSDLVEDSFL

Where [5] appears, read: 10 μmolar compound concentration, ATP at Km app, read-out: RPS6KB1 (p70S6K) inhibition.
[6] abbreviates: read-out: % Inhibition mean RPS6KB1 (p70S6K).
The mark [7] stands for this setting: 10 μmolar compound concentration, ATP at Km app, read-out: FGFR1 inhibition.
[8] abbreviates: read-out: % Inhibition mean FGFR1.
Where [9] appears, read: 10 μmolar compound concentration, ATP at Km app, read-out: CSF1R (FMS) inhibition.
The mark [10] stands for this setting: read-out: % Inhibition mean CSF1R (FMS).
[11] abbreviates: 10 μmolar compound concentration, ATP at Km app, read-out: PDGFRA (PDGFR alpha) inhibition.
The mark [12] stands for this setting: read-out: % Inhibition mean PDGFRA (PDGFR alpha).

Where two headings read alike, the source gives them in different places. Where only a bound is given, the exact number is not on record here.

CSF1R (FMS), sequence (P07333 20-972): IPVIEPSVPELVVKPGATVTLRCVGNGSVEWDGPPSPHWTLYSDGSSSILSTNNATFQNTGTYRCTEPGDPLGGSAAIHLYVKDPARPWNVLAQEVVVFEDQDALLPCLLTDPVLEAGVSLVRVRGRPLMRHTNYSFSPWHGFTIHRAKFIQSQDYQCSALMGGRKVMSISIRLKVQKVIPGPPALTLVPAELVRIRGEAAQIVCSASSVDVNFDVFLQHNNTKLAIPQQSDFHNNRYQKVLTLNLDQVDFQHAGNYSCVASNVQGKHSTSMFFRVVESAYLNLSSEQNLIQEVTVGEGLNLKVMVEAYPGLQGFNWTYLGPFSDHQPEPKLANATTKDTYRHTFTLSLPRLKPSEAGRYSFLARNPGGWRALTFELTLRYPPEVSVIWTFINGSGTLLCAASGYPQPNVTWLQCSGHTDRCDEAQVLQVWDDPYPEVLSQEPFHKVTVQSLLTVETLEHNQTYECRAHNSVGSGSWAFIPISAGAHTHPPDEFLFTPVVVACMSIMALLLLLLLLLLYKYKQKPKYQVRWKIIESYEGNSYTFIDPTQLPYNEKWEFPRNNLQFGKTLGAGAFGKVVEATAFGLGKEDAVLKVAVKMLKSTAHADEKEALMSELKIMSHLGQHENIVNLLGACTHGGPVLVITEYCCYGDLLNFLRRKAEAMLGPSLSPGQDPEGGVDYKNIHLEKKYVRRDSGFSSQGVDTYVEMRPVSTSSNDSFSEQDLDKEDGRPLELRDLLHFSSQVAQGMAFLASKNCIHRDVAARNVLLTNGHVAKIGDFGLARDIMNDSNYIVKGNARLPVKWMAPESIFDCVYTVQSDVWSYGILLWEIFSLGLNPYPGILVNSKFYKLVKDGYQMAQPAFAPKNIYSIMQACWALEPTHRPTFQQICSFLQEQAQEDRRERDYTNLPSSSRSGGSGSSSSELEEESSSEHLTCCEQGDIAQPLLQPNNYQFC

As a reminder, the inhibition is the relative decrease from the control value, in per cent. With `CCn1ncc2c1CCC(Nc1nc3c(-c4ccc(F)cc4)cccn3n1)C2` (stereo not shown) [Example 55, (1-Ethyl-4,5,6,7-tetrahydro-1H-indazol-5-yl)-[8-(4-fluoro-phenyl)-[1,2,4]triazolo[1,5-a]pyridine-2-yl]-amine], the inhibition at 10 µM was less than 40% in assay [1] (setting [5]); 11% in assay [1] (setting [6]); less than 40% in assay [2] (setting [7]); 12% in assay [2] (setting [8]); less than 40% in assay [3] (setting [9]); 34% in assay [3] (setting [10]). Moreover, the inhibition at 10 µM in assay [4] (setting [11]) is less than 40%; in assay [4] (setting [12]) it was 16%.

Take `CCn1ncc2c1CCC(Nc1nc3c(-c4ccc(C)nc4)cccn3n1)C2` (stereo not shown) [Example 67, (1-Ethyl-4,5,6,7-tetrahydro-1H-indazol-5-yl)-[8-(6-methyl-pyridin-3-yl)-[1,2,4]triazolo[1,5-a]pyridine-2-yl]-amine]: the inhibition at 10 µM in assay [1] (setting [5]) is less than 40%; in assay [1] (setting [6]) it was 23%; in assay [2] (setting [7]) it was less than 40%; in assay [2] (setting [8]) it was 21%; in assay [3] (setting [9]) it was less than 40%; in assay [3] (setting [10]), 29%. In addition, the inhibition at 10 µM in assay [4] (setting [11]) was less than 40%; in assay [4] (setting [12]), 20%.

Consider `Cc1cc(F)ccc1-c1cccn2nc(NC3CCc4cnn(C)c4C3)nc12` (stereo not shown) [Example 40, [8-(4-Fluoro-2-methyl-phenyl)-[1,2,4]triazolo[1,5-a]pyridine-2-yl]-(1-methyl-4,5,6,7-tetrahydro-1H-indazol-6-yl)-amine], for which the inhibition at 10 µM is less than 40% in assay [1] (setting [5]); 19% in assay [1] (setting [6]); less than 40% in assay [2] (setting [7]); 27% in assay [2] (setting [8]); less than 40% in assay [3] (setting [9]); 25% in assay [3] (setting [10]). Further, the inhibition at 10 µM was less than 40% in assay [4] (setting [11]) and 5% in assay [4] (setting [12]).

For the molecule `CCn1ncc2c1CCC(Nc1nc3c(-c4ccc(OC)nc4)cccn3n1)C2` (stereo not shown) [Example 71, (1-Ethyl-4,5,6,7-tetrahydro-1H-indazol-5-yl)-[8-(6-methoxy-pyridin-3-yl)-[1,2,4]triazolo[1,5-a]pyridine-2-yl]-amine], the inhibition at 10 µM in assay [1] (setting [5]) was less than 40%; in assay [1] (setting [6]) it was 23%; in assay [2] (setting [7]) it was less than 40%; in assay [2] (setting [8]), 19%; in assay [3] (setting [9]), 40 to 80%; in assay [3] (setting [10]) it was 62%. In addition, the inhibition at 10 µM is less than 40% in assay [4] (setting [11]) and 21% in assay [4] (setting [12]).

Regarding `CCn1nnc2c1CCC(Nc1nc3c(-c4ccc(F)cc4C)cccn3n1)C2` (stereo not shown) [Example 51, (1-Ethyl-4,5,6,7-tetrahydro-1H-benzotriazol-5-yl)-[8-(4-fluoro-2-methyl-phenyl)-[1,2,4]triazolo[1,5-a]pyridine-2-yl]-amine], the inhibition at 10 µM is less than 40% in assay [1] (setting [5]); 1% in assay [1] (setting [6]); less than 40% in assay [2] (setting [7]); 5% in assay [2] (setting [8]); less than 40% in assay [3] (setting [9]); 9% in assay [3] (setting [10]). The figures for the inhibition at 10 µM in assay [4] (setting [11]) and in assay [4] (setting [12]) were less than 40% and 14%, respectively.

Source of the values: patent US11339161B2, “Triazolo pyridines as modulators of gamma-secretase” (Boehringer Ingelheim International GmbH, priority 2017, dated 2022).
